The subject of assay [1] is Nannizzia gypsea. Kind of assay: Antifungal activity against Microsporum gypseum. The assay is classed as functional.
The subject of assay [2] is Candida albicans. Kind of assay: Antifungal activity against Candida albicans. The format is functional.
Assay [3] has as its system Aspergillus niger. Kind of assay: Antifungal activity against Aspergillus niger. The assay is classed as functional.
Assay [4] relates to Staphylococcus aureus. Put plainly: Antibacterial activity against Staphylococcus aureus. The format is functional.
Assay [5] concerns KB. Put plainly: Cytotoxicity against human KB cells by MTT assay. The format is functional, cell-based. Background: Tetrazolium dyes change colour on reduction, which living cells bring about.
Assay [6] deals with SK-N-MC. Put plainly: Cytotoxicity against human SK-N-MC cells by MTT assay. The format is functional, cell-based.
For assay [7], the system named is MDA-MB-231. Kind of assay: Cytotoxicity against human MDA-MB-231 cells by MTT assay. The format is functional, cell-based.
Assay [8] relates to T47D. Kind of assay: Cytotoxicity against human T47D cells after 72 hrs by MTT assay. The format is functional, cell-based.
The subject of assay [9] is MCF7. Put plainly: Cytotoxicity against human MCF7 cells after 72 hrs by MTT assay. The assay is classed as functional, cell-based. As to conditions: MCF7, 72 h.
Assay [10] relates to MDA-MB-231. Kind of assay: Cytotoxicity against human MDA-MB-231 cells after 72 hrs by MTT assay. The format is functional, cell-based. The conditions noted are these: MDA-MB-231, 72 h.
For assay [11], the system named is MDA-MB-231. Kind of assay: Cytotoxicity against human MDA-MB-231 cells after 24 hrs by MTT assay. The format is functional, cell-based. As to conditions: MDA-MB-231, 24 h.
Assay [12] deals with SK-N-MC. Put plainly: Cytotoxicity against human SK-N-MC cells after 24 hrs by MTT assay. The assay is classed as functional, cell-based.
Assay [13] deals with K562. Put plainly: Cytotoxicity against human K562 cells after 24 hrs by MTT assay. The assay is classed as functional, cell-based. As to conditions: K562, 24 h.
Assay [14] concerns Staphylococcus aureus. Put plainly: Antibacterial activity against methicillin-resistant Staphylococcus aureus 252. The format is functional.
In assay [15] the test system is Saccharomyces cerevisiae. Kind of assay: Antifungal activity against Saccharomyces cerevisiae PTCC 5177 after 24 to 48 hrs by agar dilution method. The format is functional.
Assay [16] relates to Nannizzia gypsea. Put plainly: Antifungal activity against Microsporum gypseum PTCC 5070 after 168 hrs by agar dilution method. The conditions noted are these: PTCC 5070, 168 h. The format is functional.
Assay [17] relates to Aspergillus niger. Put plainly: Antifungal activity against Aspergillus niger PTCC 5012 after 72 hrs by agar dilution method. The assay is classed as functional. As to conditions: PTCC 5012, 72 h. (In agar dilution the substance is mixed into plates at graded concentrations.)
Assay [18] concerns Candida albicans. Kind of assay: Antifungal activity against Candida albicans PTCC 5027 after 24 to 48 hrs by agar dilution method. The format is functional.
Assay [19] deals with Saccharomyces cerevisiae. Kind of assay: Antifungal activity against Saccharomyces cerevisiae. The assay is classed as functional.
Assay [20] has as its system Aspergillus niger. Put plainly: Ratio of fluconazole MIC to compound MIC for Aspergillus niger. The format is functional.
In assay [21] the test system is Nannizzia gypsea. Put plainly: Ratio of fluconazole MIC to compound MIC for Microsporum gypseum. The format is functional.
In assay [22] the test system is Candida albicans. Kind of assay: Ratio of fluconazole MIC to compound MIC for Candida albicans. The assay is classed as functional.
The subject of assay [23] is Saccharomyces cerevisiae. Put plainly: Ratio of fluconazole MIC to compound MIC for Saccharomyces cerevisiae. The format is functional.
In assay [24] the test system is Mycolicibacterium smegmatis. Kind of assay: Antimycobacterial activity against Mycobacterium smegmatis. The assay is classed as functional.
Assay [25] deals with Mycolicibacterium aurum. Put plainly: Antimycobacterial activity against Mycobacterium aurum. The assay is classed as functional.
For assay [26], the system named is Mycolicibacterium phlei. Put plainly: Antimycobacterial activity against Mycobacterium phlei. The format is functional.
In assay [27] the test system is Mycolicibacterium fortuitum. Put plainly: Antimycobacterial activity against Mycobacterium fortuitum. The format is functional.
Assay [28] deals with Acetylcholinesterase (Homo sapiens, UniProt P22303). Kind of assay: Inhibition of AChE (unknown origin).
Assay [29] has as its system HUVEC. Kind of assay: Cytotoxicity against HUVEC by MTT assay. The assay is classed as functional, cell-based. The conditions noted are these: Homo sapiens.

Values after ≈ are worked out from the molar mass of the structure shown.

Sequence of Acetylcholinesterase (P22303 whole entry): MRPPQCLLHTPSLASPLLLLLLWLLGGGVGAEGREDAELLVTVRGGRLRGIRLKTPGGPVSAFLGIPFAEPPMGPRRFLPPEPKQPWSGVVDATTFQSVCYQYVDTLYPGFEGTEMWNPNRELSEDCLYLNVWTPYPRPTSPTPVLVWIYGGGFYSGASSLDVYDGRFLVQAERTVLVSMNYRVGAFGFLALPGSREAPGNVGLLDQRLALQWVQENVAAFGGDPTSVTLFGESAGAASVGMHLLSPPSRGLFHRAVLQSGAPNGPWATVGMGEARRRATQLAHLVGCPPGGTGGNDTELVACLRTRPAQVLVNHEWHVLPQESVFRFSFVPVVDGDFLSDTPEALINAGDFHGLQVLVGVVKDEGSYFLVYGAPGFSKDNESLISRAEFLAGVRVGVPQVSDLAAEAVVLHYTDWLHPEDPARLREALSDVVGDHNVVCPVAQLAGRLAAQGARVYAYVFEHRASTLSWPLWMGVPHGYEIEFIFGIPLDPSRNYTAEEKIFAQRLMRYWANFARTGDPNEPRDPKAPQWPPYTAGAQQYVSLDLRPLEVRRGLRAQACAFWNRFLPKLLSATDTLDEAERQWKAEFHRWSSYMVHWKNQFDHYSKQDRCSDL

The MIC is the least concentration at which growth counts as inhibited. A low value points to greater potency. In the case of `O=[N+]([O-])O.c1ccc(CO/N=C2/c3ccccc3OCC2n2ccnc2)cc1` (stereo not drawn), in [1], the lowest concentration to inhibit growth (MIC) was 2 µg/mL.

For the molecule `O=[N+]([O-])O.c1ccc(CO/N=C2\c3ccccc3OCC2n2ccnc2)cc1` (stereo not drawn), in [1], the MIC amounted to 2 µg/mL.

Consider `Clc1ccc(CO/N=C2\c3ccccc3OCC2n2ccnc2)cc1Cl.O=[N+]([O-])O` (stereo not drawn), for which the MIC in [2] and in assay [3] was at most 1 µg/mL each time.

`COc1cc(C2CC(=O)c3c(cc(O)c(C/C=C(\C)CCC=C(C)C)c3O)O2)cc(OC)c1O` (stereo not drawn) showed an MIC in assay [4] of 4 µg/mL (≈ 8.54 µM).

For orientation: IC50 means the midpoint of a concentration-inhibition curve. A lower IC50 goes with inhibition by little substance. Turning to `COc1ccc2c(c1)OC/C(=C\c1cc(Cl)c(OC)c(OC)c1)C2=O`, the IC50 in [5], in assay [6] and in [7] was 7.56 µg/mL (≈ 21 µM) throughout.

Consider `O=C1/C(=C/c2ccccc2)COc2cc3c(cc21)OCO3`, for which the concentration for half-maximal inhibition (IC50) in assay [8], in [9] and in assay [10] was at most 9.3 µg/mL in each case.

Consider `COc1cc(/C=C2\COc3cc(O)ccc3C2=O)cc(Br)c1O`, for which the IC50 in assay [11], in [12] and in assay [13] was at most 3.86 µg/mL in each case.

As to `CC(C)=CCC/C(C)=C/Cc1c(C2CC(=O)c3c(O)cc(O)cc3O2)ccc(O)c1O` (stereo not drawn), it took 16 µg/mL (≈ 37.7 µM) to inhibit growth in assay [4] (MIC).

`C=C(C)C(C)c1cc(C2CC(=O)c3c(O)cc(O)cc3O2)c(OC)cc1O` (stereo not drawn) gave an MIC in [14] of 16 µg/mL (≈ 43.2 µM).

The molecule `C=C(C)C(C)c1cc(C2CC(=O)c3c(O)cc(O)cc3O2)cc(OC)c1O` (stereo not drawn) displayed an MIC in assay [14] of 16 µg/mL (≈ 43.2 µM).

Turning to `CC1Oc2ccccc2/C(=N/Nc2ccccc2)C1n1ccnc1` (stereo not drawn), the MIC in [15], in assay [16], in assay [17] and in assay [18] was 8 µg/mL (≈ 25.1 µM) throughout.

In assay [19], `Clc1ccc(CO/N=C2\c3ccc(Cl)cc3OCC2n2cncn2)c(Cl)c1` (stereo not drawn) came in with an MIC of 4 µg/mL (≈ 9.44 µM).

In the case of `Clc1ccc(CO/N=C2\c3ccccc3OCC2n2cncn2)cc1Cl.O=[N+]([O-])O` (stereo not drawn), the MIC in assay [1] and in [3] was 1 µg/mL each time. In addition, the Ratio in assay [20] and in assay [21] was 16 each time.

Consider `C[C@@H]1Oc2cc(Cl)ccc2/C(=N\OCc2ccccc2)[C@H]1n1ccnc1.O=[N+]([O-])O`, for which the Ratio in assay [22] and in [23] was 32 throughout. For the same molecule, the MIC in assay [1] is 1 µg/mL; in assay [2], 0.25 µg/mL; in [19], 0.5 µg/mL.

`C[C@@H]1Oc2ccccc2/C(=N\OCc2ccc(F)cc2)[C@H]1n1ccnc1.O=[N+]([O-])O` displayed an MIC in assay [1] of 1 µg/mL.

As for `COc1ccc(CC2COc3c(ccc4c3OCO4)C2=O)cc1` (stereo not drawn), the MIC was 256 µg/mL (≈ 820 µM) in [24], 32 µg/mL (≈ 102 µM) in [25], 16 µg/mL (≈ 51.2 µM) in [26] and 128 µg/mL (≈ 410 µM) in assay [27].

On to `Nc1oc2ccccc2c(=O)c1/C=C1\COc2ccccc2C1=O`, for which, in assay [28], half-maximal inhibition (IC50) was put at 0.27 µM. That is a sub-micromolar value.

Take `COc1ccccc1/C=C1\COc2ccccc2C1=O`: in assay [29], the IC50 was found to be 19 µM.

The values are drawn from ChEMBL document CHEMBL3414547, “Recent advances of chroman-4-one derivatives: synthetic approaches and bioactivities” (Eur J Med Chem, 2015).
